According to PubChem BioAssay (NCI):
“And” between values parts separate entries of the source, which are not always exact repeats. Equal entries are not always repeated.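 Assay format: 96-well plates, 48-hour exposure. GI50 marks 50% less growth. At the TGI there is no net growth.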

Experiments:
Test in all cases: NCI-60 cell line screen, 48 h
[1] = system: RXF 393 renal
[2] = system: ACHN renal
[3] = system: EKVX NSCLC
[4] = system: HCC-2998 colon
[5] = system: A498 renal
[6] = system: MOLT-4 leukemia
[7] = system: UACC-257 melanoma
[8] = system: NCI-H460 lung
[9] = system: SF-539 CNS
[10] = system: U251 CNS

SMILES | TGI [1] [µM] | TGI [2] [µM] | TGI [3] [µM] | TGI [4] | TGI [5] | TGI [6] [µM] | TGI [7] [µM] | TGI [8] [µM] | TGI [9] [µM] | TGI [10] [µM] | GI50 [1] [µM] | GI50 [2] [µM] | GI50 [3] [µM] | GI50 [4] [µM] | GI50 [5] [µM] | GI50 [6] [µM] | GI50 [7] [µM] | GI50 [8] [µM] | GI50 [9] [µM] | GI50 [10] [µM]
CN(NC(=O)/C(=C/c1ccc(O)cc1)NC(=O)c1ccccc1)c1ccnc2cc(Cl)ccc12 | 32 | 33 | 42.9 | 33.3 µM | 32.4 µM | 43 | 33.9 | 31.2 | 43.3 | 28.5 |  |  |  |  |  |  |  |  |  | 
CCOC(=O)C(C(=O)c1ccccc1-c1ccccc1C(=O)O)=P(c1ccccc1)(c1ccccc1)c1ccccc1 | 73.1 | > 100 | > 100 | 47.7 µM | 88.8 µM | 79 | 76.4 | 39 | 35.3 | 36.8 |  |  |  |  |  |  |  |  |  | 
COC(=O)C1=C(O)C(O)=C(C(=O)OC)CC1 | 35.1 | > 100 | > 100 | > 100 µM | > 100 µM | > 100 | > 100 | > 100 | > 100 | > 100 |  |  |  |  |  |  |  |  |  | 
C1=C[C@@H]2c3ccc4cnccc4c3NC[C@@H]2C1 | > 100 | > 100 | > 100 | > 100 µM | > 100 µM | > 100 | > 100 | > 100 | > 100 | > 100 |  |  |  |  |  |  |  |  |  | 
COc1ccc(NC(=O)CC/C(CC(=O)c2ccco2)=N/Nc2ccc([N+](=O)[O-])cc2[N+](=O)[O-])cc1 | > 100 | > 100 | > 100 | > 100 µM | > 100 µM | 97.3 | > 100 | > 100 | > 100 | > 100 |  |  |  |  |  |  |  |  |  | 
COc1cc(-c2cc(-c3ccc(N(C)C)cc3)nc(N3CCC(O)CC3)c2C#N)cc(OC)c1OC | 3.27 | > 100 | > 100 | 6.48 µM | 19.1 µM | 10.7 | 0.969 | 1.9 | 3.24 | 2.83 | 0.177 | 0.478 | 0.461 | 0.54 | 1.19 | 0.706 | 0.3 | 0.249 | 0.82 | 0.527
COc1ccc(/C=C2/SC(=Nc3c(C)nn(-c4ccccc4)c3N)NC2=O)cc1 | 47.8 | 52.4 | 40 | 20.6 µM | 2.79 µM | > 100 | 65.6 | 10.7 | 10.8 | 34.7 | 14.5 | 5.29 | 4.18 | 6.87 | 1.07 | 8.4 | 6.63 | 3.04 | 2.38 | 4.75
COc1ccc(CN(O)C2C(CO)OC(n3cc(I)c(=O)[nH]c3=O)C2O)cc1 (stereo not drawn) | > 100 | > 100 | > 100 | > 100 µM | > 100 µM | > 100 | > 100 | > 100 | > 100 | > 100 |  |  |  |  |  |  |  |  |  | 
COC(=O)C1=Cc2cc3c(cc2[C@H](c2ccc4c(c2)OCO4)C1C(=O)OC)OCO3 (stereo partly drawn) | > 100 | > 100 | > 100 | > 100 µM | 74 µM | > 100 | > 100 | > 100 | > 100 | > 100 |  |  |  |  |  |  |  |  |  | 
O=C(Nc1ccc(Cl)c(Cl)c1)Nc1ccc(Cl)c([N+](=O)[O-])c1 | 9.29 | 3.06 | 7.35 | 4.58 µM | 4.47 µM | > 25 | 7.15 | 3.03 | 5.51 | 4.3 | 2.95 | 0.8 | 1.04 | 1.22 | 1.37 | 0.925 | 2.85 | 0.888 | 2.17 | 1.13
CCc1nc(N)nc(N)c1-c1ccc(Cl)cc1 | > 100 | > 100 | > 100 | > 100 µM and 25.7 µM | > 100 µM and 42.4 µM | > 100 | > 100 | > 100 | > 100 | > 100 | 22.6 |  | 5.7 |  | 24.1 | 25.6 | 10.3 | 1.73 | 9.43 | 5.65
COc1ccc(NC(=O)c2ccc(NC3=C(Cl)C(=O)N(Cc4ccccc4)C3=O)cc2)cc1 | 14.6 | 12.7 | > 100 | 31.1 µM | 34.8 µM | > 100 | 24.8 | > 100 | 11.8 | 30.5 | 3.21 | 3.64 | 32.1 | 15.6 | 16.8 | 2.6 | 9.14 | 53.1 | 3.29 | 13.3
